The values below are quoted from earlier work in patent US10716771B2, “Pharmaceutical composition for preventing or treating immune diseases or inflammatory diseases, containing biguanide derivative compound as active ingredient” (THE CATHOLIC UNIVERSITY OF KOREA INDUSTRY-ACADEMIC …, priority 2013, dated 2020).

The subject of this series is TNF-α. Conditions: stated as known; cited from earlier work.

Regarding `CN(C)C(=N)N=C(N)N` [Metformin], the “effect of blocking TNF-α” value is given as “slight effect”.
